Assay results reported in patent publication US8952024B2, “Herbicidal pyrimidone derivatives” (E I du Pont de Nemours and Company, priority 2009, dated 2015).

Assays:
Assay type in all cases: in vivo
[1] = tested on: ragweed (common ragweed, Ambrosia elatior); assay: Test B pre-/postemergence plant response
Text: (§1) Seeds of plant species selected from blackgrass (Alopecurus myosuroides), downy bromegrass (Bromus tectorum), green foxtail (Setaria viridis), Italian ryegrass (Lolium multiflorum), wheat (Triticum aestivum), wild oat (Avena fatua), deadnettle (henbit deadnettle, Lamium amplexicaule), galium (catchweed bedstraw, Galium aparine), bermudagrass (Cynodon dactylon), Surinam grass (Brachiaria decumbens), cocklebur (Xanthium strumarium), corn (Zea mays), large crabgrass (Digitaria sanguinalis), woolly cupgrass (Eriochloa villosa), giant foxtail (Setaria faberii), goosegrass (Eleusine indica), johnsongrass (Sorghum halepense), kochia (Kochia scoparia), lambsquarters (Chenopodium album), morningglory (Ipomoea coccinea), nightshade (eastern black nightshade, Solanum ptycanthum), yellow nutsedge (Cyperus esculentus), pigweed (Amaranthus retroflexus), ragweed (common ragweed, Ambrosia elatior), Russian thistle (Salsola kali), soybean (Glycine max), sunflower (common oilseed sunflower, Helianthus annuus) and velvetleaf (Abutilon theophrasti) were planted into a blend of loam soil and sand and treated preemergence with test compounds formulated in a non-phytotoxic solvent mixture which included a surfactant.
(§2) At the same time, plants selected from these crop and weed species and also winter barley (Hordeum vulgare), canarygrass (Phalaris minor), chickweed (Stellaria media) and windgrass (Apera spica-venti) were planted in pots containing Redi-Earth® planting medium (Scotts Company, 14111 Scottslawn Road, Marysville, Ohio 43041) comprising spaghnum peat moss, vermiculite, wetting agent and starter nutrients and treated with postemergence applications of some of the test chemicals formulated in the same manner. Plants ranged in height from 2 to 18 cm (1- to 4-leaf stage) for postemergence treatments.
(§3) Treated plants and controls were maintained in a greenhouse for 13 to 15 days, after which time all treated plants were visually evaluated and compared to controls. Plant response ratings, summarized in Table B, are based on a scale of 0 to 100 where 0 is no effect and 100 is complete control. A dash (-) response means no test result.

[2] = tested on: Italian ryegrass (Lolium multiflorum); assay: Test B pre-/postemergence plant response
Text: as §1, §2, §3

[3] = tested on: blackgrass (Alopecurus myosuroides); assay: Test B pre-/postemergence plant response
Text: as §1, §2, §3

corn (Zea mays) = assay: Test B pre-/postemergence plant response
Text: as §1, §2, §3

[4] = tested on: bermudagrass (Cynodon dactylon); assay: Test B pre-/postemergence plant response
Text: as §1, §2, §3

[5] = tested on: large crabgrass (Digitaria sanguinalis); assay: Test B pre-/postemergence plant response
Text: as §1, §2, §3

[6] = tested on: lambsquarters (Chenopodium album); assay: Test B pre-/postemergence plant response
Text: as §1, §2, §3

soybean (Glycine max) = assay: Test B pre-/postemergence plant response
Text: as §1, §2, §3

[7] = tested on: woolly cupgrass (Eriochloa villosa); assay: Test B pre-/postemergence plant response
Text: as §1, §2, §3

[8] = tested on: yellow nutsedge (Cyperus esculentus); assay: Test B pre-/postemergence plant response
Text: as §1, §2, §3

[9] = tested on: Surinam grass (Brachiaria decumbens); assay: Test B pre-/postemergence plant response
Text: as §1, §2, §3

[10] = tested on: johnsongrass (Sorghum halepense); assay: Test B pre-/postemergence plant response
Text: as §1, §2, §3

wild oat (Avena fatua) = assay: Test B pre-/postemergence plant response
Text: as §1, §2, §3

[11] = tested on: velvetleaf (Abutilon theophrasti); assay: Test B pre-/postemergence plant response
Text: as §1, §2, §3

[12] = tested on: windgrass (Apera spica-venti); assay: Test B postemergence plant response; settings: Postemergence
In short: (§4)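 Plants at the 1- to 4-leaf stage (2 to 18 cm tall), grown in pots of peat moss/vermiculite medium with wetting agent and starter nutrients, received postemergence applications of test chemicals. After 13 to 15 days in a greenhouse, injury was rated visually against untreated controls on a 0 (no effect) to 100 (complete control) scale.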

[13] = tested on: canarygrass (Phalaris minor); assay: Test B postemergence plant response; settings: Postemergence
In short: as §4

[14] = tested on: chickweed (Stellaria media); assay: Test B postemergence plant response; settings: Postemergence
In short: as §4

[15] = tested on: winter barley (Hordeum vulgare); assay: Test B postemergence plant response; settings: Postemergence
In short: as §4

[16] = 250 g ai/ha, Preemergence, 0 to 100 scale
[17] = Postemergence, 31 g ai/ha, scale 0 to 100 (0 no effect, 100 complete control)
[18] = Postemergence, 62 g ai/ha, scale 0 (no effect) to 100 (complete control), 13 to 15 days
[19] = Postemergence, 125 g ai/ha, visual rating after 13 to 15 days, scale 0 (no effect) to 100 (complete control)
[20] = Postemergence, 250 g ai/ha, scale 0 to 100
[21] = Preemergence, 31 g ai/ha, scale 0 to 100 (0 no effect, 100 complete control)
[22] = Preemergence, 62 g ai/ha, scale 0 to 100, 0 no effect, 100 complete control
[23] = Preemergence, 125 g ai/ha, 0 to 100 scale
[24] = 31 g ai/ha, scale 0 to 100 (0 no effect, 100 complete control)
[25] = 62 g ai/ha, scale 0 (no effect) to 100 (complete control), 13 to 15 days
[26] = 125 g ai/ha, visual rating after 13 to 15 days, scale 0 (no effect) to 100 (complete control)

Substance: 5-[(2-hydroxy-6-oxo-1-cyclohexen-1-yl)carbonyl]-3-(2-methoxyethyl)-2-(3-thienyl)-4(3H)-pyrimidinone [Compound 97]
- Plant response rating, Ragweed [1, 16]: 100
- Plant response rating, Ragweed [1, 17]: 75
- Plant response rating, Ragweed [1, 18]: 80
- Plant response rating, Ragweed [1, 19]: 90
- Ragweed plant response rating [1, 20]: 98
- Plant response rating, Ragweed [1, 21]: 98
- Plant response rating, Ragweed [1, 22]: 100
- Ragweed plant response rating [1, 23]: 100
- Plant response rating, Ryegrass, Italian [2, 16]: 0
- Plant response rating, Ryegrass, Italian [2, 17]: 0
- Plant response rating, Ryegrass, Italian [2, 18]: 0
- Plant response rating, Ryegrass, Italian [2, 19]: 0
- Ryegrass, Italian plant response rating [2, 20]: 20
- Plant response rating, Ryegrass, Italian [2, 21]: 0
- Plant response rating, Ryegrass, Italian [2, 22]: 0
- Ryegrass, Italian plant response rating [2, 23]: 0
- Plant response rating, Blackgrass [3, 16]: 20
- Plant response rating, Blackgrass [3, 17]: 0
- Plant response rating, Blackgrass [3, 18]: 0
- Plant response rating, Blackgrass [3, 19]: 50
- Blackgrass plant response rating [3, 20]: 50
- Plant response rating, Blackgrass [3, 21]: 0
- Plant response rating, Blackgrass [3, 22]: 0
- Blackgrass plant response rating [3, 23]: 0
- Plant response rating, Corn (corn (Zea mays); [16]): 0
- Plant response rating, Corn (corn (Zea mays); [17]): 15
- Plant response rating, Corn (corn (Zea mays); [18]): 15
- Plant response rating, Corn (corn (Zea mays); [19]): 45
- Corn plant response rating (corn (Zea mays); [20]): 65
- Plant response rating, Corn (corn (Zea mays); [21]): 0
- Plant response rating, Corn (corn (Zea mays); [22]): 0
- Corn plant response rating (corn (Zea mays); [23]): 0
- Plant response rating, Bermudagrass [4, 16]: 100
- Plant response rating, Bermudagrass [4, 17]: 70
- Plant response rating, Bermudagrass [4, 18]: 75
- Plant response rating, Bermudagrass ([4]; Postemergence, 125 g ai/ha, scale 0 to 100 (0 no effect, 100 complete control), 13 to 15 days): 90
- Bermudagrass plant response rating [4, 20]: 95
- Plant response rating, Bermudagrass [4, 21]: 45
- Plant response rating, Bermudagrass [4, 22]: 80
- Bermudagrass plant response rating [4, 23]: 100
- Plant response rating, Crabgrass, Large [5, 16]: 95
- Plant response rating, Crabgrass, Large [5, 17]: 65
- Plant response rating, Crabgrass, Large [5, 18]: 70
- Plant response rating, Crabgrass, Large [5, 19]: 75
- Crabgrass, Large plant response rating [5, 20]: 80
- Plant response rating, Crabgrass, Large [5, 21]: 0
- Plant response rating, Crabgrass, Large [5, 22]: 0
- Crabgrass, Large plant response rating [5, 23]: 70
- Plant response rating, Lambsquarters [6, 16]: 100
- Plant response rating, Lambsquarters [6, 17]: 80
- Plant response rating, Lambsquarters [6, 18]: 80
- Plant response rating, Lambsquarters [6, 19]: 90
- Lambsquarters plant response rating [6, 20]: 95
- Plant response rating, Lambsquarters [6, 21]: 100
- Plant response rating, Lambsquarters [6, 22]: 100
- Lambsquarters plant response rating [6, 23]: 100
- Plant response rating, Soybean (soybean (Glycine max); [16]): 75
- Plant response rating, Soybean (soybean (Glycine max); [17]): 95
- Plant response rating, Soybean (soybean (Glycine max); [18]): 95
- Plant response rating, Soybean (soybean (Glycine max); [19]): 95
- Soybean plant response rating (soybean (Glycine max); [20]): 98
- Plant response rating, Soybean (soybean (Glycine max); [21]): 10
- Plant response rating, Soybean (soybean (Glycine max); [22]): 60
- Soybean plant response rating (soybean (Glycine max); [23]): 65
- Plant response rating, Cupgrass, Woolly [7, 16]: 40
- Plant response rating, Cupgrass, Woolly [7, 17]: 60
- Plant response rating, Cupgrass, Woolly [7, 18]: 70
- Plant response rating, Cupgrass, Woolly [7, 19]: 70
- Cupgrass, Woolly plant response rating [7, 20]: 75
- Plant response rating, Cupgrass, Woolly [7, 21]: 0
- Plant response rating, Cupgrass, Woolly [7, 22]: 10
- Cupgrass, Woolly plant response rating [7, 23]: 35
- Plant response rating, Nutsedge, Yellow [8, 16]: 75
- Plant response rating, Nutsedge, Yellow [8, 17]: 15
- Plant response rating, Nutsedge, Yellow [8, 18]: 55
- Plant response rating, Nutsedge, Yellow [8, 19]: 60
- Nutsedge, Yellow plant response rating [8, 20]: 75
- Plant response rating, Nutsedge, Yellow [8, 21]: 0
- Plant response rating, Nutsedge, Yellow [8, 22]: 0
- Nutsedge, Yellow plant response rating [8, 23]: 55
- Plant response rating, Surinam Grass [9, 16]: 80
- Plant response rating, Surinam Grass [9, 17]: 60
- Plant response rating, Surinam Grass [9, 18]: 70
- Plant response rating, Surinam Grass [9, 19]: 70
- Surinam Grass plant response rating [9, 20]: 80
- Plant response rating, Surinam Grass [9, 21]: 0
- Plant response rating, Surinam Grass [9, 22]: 10
- Surinam Grass plant response rating [9, 23]: 15
- Plant response rating, Johnsongrass [10, 16]: 75
- Plant response rating, Johnsongrass [10, 17]: 0
- Plant response rating, Johnsongrass [10, 18]: 55
- Plant response rating, Johnsongrass [10, 19]: 60
- Johnsongrass plant response rating [10, 20]: 75
- Plant response rating, Johnsongrass [10, 21]: 0
- Plant response rating, Johnsongrass [10, 22]: 10
- Johnsongrass plant response rating [10, 23]: 60
- Plant response rating, Oat, Wild (wild oat (Avena fatua); [16]): 10
- Plant response rating, Oat, Wild (wild oat (Avena fatua); [17]): 0
- Plant response rating, Oat, Wild (wild oat (Avena fatua); [18]): 5
- Plant response rating, Oat, Wild (wild oat (Avena fatua); [19]): 20
- Oat, Wild plant response rating (wild oat (Avena fatua); [20]): 40
- Plant response rating, Oat, Wild (wild oat (Avena fatua); [21]): 0
- Plant response rating, Oat, Wild (wild oat (Avena fatua); [22]): 0
- Oat, Wild plant response rating (wild oat (Avena fatua); [23]): 0
- Plant response rating, Velvetleaf [11, 16]: 100
- Plant response rating, Velvetleaf [11, 17]: 70
- Plant response rating, Velvetleaf [11, 18]: 70
- Plant response rating, Velvetleaf [11, 19]: 75
- Velvetleaf plant response rating [11, 20]: 85
- Plant response rating, Velvetleaf [11, 21]: 55
- Plant response rating, Velvetleaf [11, 22]: 100
- Velvetleaf plant response rating [11, 23]: 100
- Plant response rating, Windgrass [12, 24]: 5
- Plant response rating, Windgrass [12, 25]: 10
- Plant response rating, Windgrass [12, 26]: 30
- Windgrass plant response rating ([12]; 250 g ai/ha, scale 0 to 100): 40
- Plant response rating, Canarygrass [13, 24]: 0
- Plant response rating, Canarygrass [13, 25]: 0
- Plant response rating, Canarygrass [13, 26]: 5
- Canarygrass plant response rating ([13]; 250 g ai/ha, scale 0 to 100): 40
- Plant response rating, Chickweed [14, 24]: 90
- Plant response rating, Chickweed [14, 25]: 95
- Plant response rating, Chickweed [14, 26]: 95
- Chickweed plant response rating ([14]; 250 g ai/ha, scale 0 to 100): 98
- Plant response rating, Barley [15, 24]: 0
- Plant response rating, Barley [15, 25]: 0
- Plant response rating, Barley ([15]; 125 g ai/ha, scale 0 to 100 (0 no effect, 100 complete control), 13 to 15 days): 0
- Barley plant response rating ([15]; 250 g ai/ha, scale 0 to 100): 5
